pKi: −log10 of the molar value.
Legend:
[1] = biological target: isolated recombinant JAK1 kinase domain (Homo sapiens (Human), UniProt P23458); assay: JAK1 enzyme assay (Caliper LabChip, Ki); type: biochemical; details: isolated recombinant JAK1 kinase domain, 1.5 nM enzyme, ATP 25 μM
[2] = biological target: isolated recombinant JAK2 kinase domain (Homo sapiens (Human), UniProt O60674); assay: JAK2 enzyme assay (Caliper LabChip, Ki); type: biochemical; details: isolated recombinant JAK2 kinase domain, 0.2 nM enzyme, ATP 25 μM
Chain of isolated recombinant JAK2 kinase domain (O60674 849-1124): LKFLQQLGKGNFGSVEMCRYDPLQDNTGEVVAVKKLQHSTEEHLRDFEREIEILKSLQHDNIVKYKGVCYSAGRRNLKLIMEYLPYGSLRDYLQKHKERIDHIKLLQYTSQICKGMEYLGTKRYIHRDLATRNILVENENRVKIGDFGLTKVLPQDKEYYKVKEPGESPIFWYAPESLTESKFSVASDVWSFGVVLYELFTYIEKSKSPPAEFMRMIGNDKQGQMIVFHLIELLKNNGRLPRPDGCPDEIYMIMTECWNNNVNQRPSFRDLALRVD

Chain of isolated recombinant JAK1 kinase domain (P23458 875-1153): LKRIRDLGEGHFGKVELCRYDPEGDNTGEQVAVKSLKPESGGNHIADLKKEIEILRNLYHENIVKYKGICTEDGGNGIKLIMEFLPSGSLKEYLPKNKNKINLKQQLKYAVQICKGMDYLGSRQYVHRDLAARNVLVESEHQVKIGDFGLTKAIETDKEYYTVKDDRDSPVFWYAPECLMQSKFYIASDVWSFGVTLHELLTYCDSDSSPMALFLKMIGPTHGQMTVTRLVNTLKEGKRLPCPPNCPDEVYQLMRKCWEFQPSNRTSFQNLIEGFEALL

SMILES	pKi [1]	pKi [2]
CN1CCN(C(=O)Cn2cc(Nc3nc4c(N5CC6CCC(C5)N6S(=O)(=O)c5cccc(C(F)(F)F)c5)cccn4n3)cn2)CC1 [Example 133, 1-(4-methylpiperazin-1-yl)-2-[4-[[8-[8-(3-(trifluoromethyl)phenyl]sulfonyl-3,8-diazabicyclo[3.2.1]octan-3-yl]-[1,2,4]triazolo[1,5-a]pyridin-2-yl]amino]pyrazol-1-yl]ethanone]	9.10	8.82
CN1CCN(C(=O)Cn2cc(Nc3nc4c(N5CC6CCC(C5)N6S(=O)(=O)c5ccc(F)cc5)cccn4n3)cn2)CC1 [Example 134, 2-[4-[[8-[8-(4-fluorophenyl)sulfonyl-3,8-diazabicyclo[3.2.1]octan-3-yl]-[1,2,4]triazolo[1,5-a]pyridin-2-yl]amino]pyrazol-1-yl]-1-(4-methylpiperazin-1-yl)ethanone]	9.40	9.30
CN1CCN(C(=O)Cn2cc(Nc3nc4c(N5CC6CCC(C5)N6S(=O)(=O)c5ccc(C(F)(F)F)cc5)cccn4n3)cn2)CC1 [Example 135, 1-(4-methylpiperazin-1-yl)-2-[4-[[8-[8-(4-(trifluoromethyl)phenyl]sulfonyl-3,8-diazabicyclo[3.2.1]octan-3-yl]-[1,2,4]triazolo[1,5-a]pyridin-2-yl]amino]pyrazol-1-yl]ethanone]	9.70	9.40
CN1CCN(C(=O)Cn2cc(Nc3nc4c(N5CC6CCC(C5)N6S(=O)(=O)c5ccc(Cl)cc5F)cccn4n3)cn2)CC1 [Example 136, 2-[4-[[8-[8-(4-chloro-2-fluoro-phenyl)sulfonyl-3,8-diazabicyclo[3.2.1]octan-3-yl]-[1,2,4]triazolo[1,5-a]pyridin-2-yl]amino]pyrazol-1-yl]-1-(4-methylpiperazin-1-yl)ethanone]	8.70	8.21
CN1CCN(C(=O)Cn2cc(Nc3nc4c(N5CC6CCC(C5)N6Cc5ccccc5F)cccn4n3)cn2)CC1 [Example 137, 2-(4-((8-((1R,5 S)-8-(2-fluorobenzyl)-3,8-diazabicyclo[3.2.1]octan-3-yl)-[1,2,4]triazolo[1,5-a]pyridin-2-yl)amino)-1H-pyrazol-1l-yl)-1-(4-methylpiperazin-1-yl)ethan-1-one]	9.00	9.15
Cc1ncc(S(=O)(=O)N2C3CCC2CN(c2cccn4nc(Nc5cnn(CC(=O)N6CCN(C)CC6)c5)nc24)C3)s1 [Example 138, 1-(4-methylpiperazin-1-yl)-2-[4-[[8-[8-(2-methylthiazol-5-yl)sulfonyl-3,8-diazabicyclo[3.2.1]octan-3-yl]-[1,2,4]triazolo[1,5-a]pyridin-2-yl]amino]pyrazol-1-yl]ethanone]	9.15	9.10
Cc1cc(S(=O)(=O)N2C3CCC2CN(c2cccn4nc(Nc5cnn(CC(=O)N6CCN(C)CC6)c5)nc24)C3)sn1 [Example 139, 2-[4-[[8-[8-(3-yl)sulfonyl-3,8-diazabicyclo[3.2.1]octan-3-yl]-[1,2,4]triazolo[1,5-a]pyridin-2-yl]amino]pyrazol-1-yl]-1-(4-methylpiperazin-1-yl)ethanone]	9.10	9.22
CN1CCN(C(=O)Cn2cc(Nc3nc4c(N5CC6CCC(C5)N6C(=O)c5ccccc5C#N)cccn4n3)cn2)CC1 [Example 140, 2-[3-[2-[[1-[2-(4-methylpiperazin-1-yl)-2-oxo-ethyl]pyrazol-4-yl]amino]-[1,2,4]triazolo[1,5-a]pyridin-8-yl]-3,8-diazabicyclo[3.2.1]octane-8-carbonyl]benzonitrile]	9.40	9.10
CN1CCN(C(=O)Cn2cc(Nc3nc4c(N5CC6CCC(C5)N6C(=O)N5CC(O)(C(F)(F)F)C5)cccn4n3)cn2)CC1 [Example 141, 2-[4-[[8-[8-[3-hydroxy-3-(trifluoromethyl)azetidine-1-carbonyl]-3,8-diazabicyclo[3.2.1]octan-3-yl]-[1,2,4]triazolo[1,5-a]pyridin-2-yl]amino]pyrazol-1-yl]-1-(4-methylpiperazin-1-yl)ethanone]	9.70	9.52
CN1CCN(C(=O)Cn2cc(Nc3nc4c(N5C[C@H]6CC[C@@H](C5)[C@H]6OCc5ccccc5C#N)cccn4n3)cn2)CC1 [Example 142, 2-[[rac-(1S,5R)-3-[2-[[1-[2-(4-methylpiperazin-1-yl)-2-oxo-ethyl]pyrazol-4-yl]amino]-[1,2,4]triazolo[1,5-a]pyridin-8-yl]-3-azabicyclo[3.2.1]octan-8-yl]oxymethyl]benzonitrile]	9.15	8.77
CN1CCN(C(=O)Cn2cc(Nc3nc4c(N5CC6CCC(C5)N6S(=O)(=O)c5cccc(C#N)c5)cccn4n3)cn2)CC1 [Example 143, 3-[[3-[2-[[1-[2-(4-methylpiperazin-1-yl)-2-oxo-ethyl]pyraol-4-yl]amino]-[1,2,4]triazolo[1,5-a]pyridin-8-yl]-3,8-diazabicyclo[3.2.1]octan-8-yl]sulfonyl]benzonitrile]	9.30	8.96
COC1(C(F)(F)F)CN(C(=O)N2C3CCC2CN(c2cccn4nc(Nc5cnn(CC(=O)N6CCN(C)CC6)c5)nc24)C3)C1 [Example 146, 2-[4-[[8-[8-[3-methoxy-3-(trifluoromethyl)azetidine-1-carbonyl]-3,8-diazabicyclo[3.2.1]octan-3-yl]-[1,2,4]triazolo[1,5-a]pyridin-2-yl]amino]pyrazol-1-yl]-1-(4-methylpiperazin-1-yl)ethanone]	8.21	8.21
CN1CCN(C(=O)Cn2cc(Nc3nc4c(N5CC6CCC(C5)N6S(=O)(=O)c5ccccc5C#N)cccn4n3)cn2)CC1 [Example 147, 2-[[3-[2-[[1-[2-(4-methylpiperazin-1-yl)-2-oxo-ethyl]pyrazol-4-yl]amino]-[1,2,4]triazolo[1,5-a]pyridin-8-yl]-3,8-diazabicyclo[3.2.1]octan-8-yl]sulfonyl]benzonitrile]	9.40	9.52
CN1CCN(C(=O)Cn2cc(Nc3nc4c(N5CC6CCC(C5)N6S(=O)(=O)c5ccccc5C(F)(F)F)cccn4n3)cn2)CC1 [Example 148, 1-(4-methylpiperazin-1-yl)-2-[4-[[8-[8-(2-(trifluoromethyl)phenyl]sulfonyl-3,8-diazabicyclo[3.2.1]octan-3-yl]-[1,2,4]triazolo[1,5-a]pyridin-2-yl]amino]pyrazol-1-yl]ethanone]	8.72	8.51
CN1CCN(C(=O)Cn2cc(Nc3nc4c(N5CC6CCC(C5)N6S(=O)(=O)c5ccc(C#N)cc5)cccn4n3)cn2)CC1 [Example 149, 4-[3-[2-([1-[2-(4-methylpiperazin-1-yl)-2-oxoethyl]-1H-pyrazol-4-yl]amino)-[1,2,4]triazolo[1,5-a]pyridin-8-yl]-3,8-diazabicyclo[3.2.1]octane-8-sulfonyl]benzonitrile]	8.96	8.70
CN1CCN(C(=O)Cn2cc(Nc3nc4c(N5CC6CCC(C5)N6S(=O)(=O)c5ccccc5F)cccn4n3)cn2)CC1 [Example 150, 2-[4-[[8-[8-(2-fluorophenyl)sulfonyl-3,8-diazabicyclo[3.2.1]octan-3-yl]-[1,2,4]triazolo[1,5-a]pyridin-2-yl]amino]pyrazol-1-yl]-1-(4-methylpiperazin-1-yl)ethanone]	9.15	8.82
O=C(Cn1cc(Nc2nc3c(N4CC5CCC(C4)N5C(=O)CCC(F)(F)F)cccn3n2)cn1)N1CCN(C2CCC2)CC1 [Example 152, 1-[3-[2-[[1-[2-(4-cyclobutylpiperazin-1-yl)-2-oxo-ethyl]pyrazol-4-yl]amino]-[1,2,4]triazolo[1,5-a]pyridin-8-yl]-3,8-diazabicyclo[3.2.1]octan-8-yl]-4,4,4-trifluoro-butan-1-one]	9.22	8.77
O=C(Cn1cc(Nc2nc3c(N4CC5CCC(C4)N5C(=O)CCC(F)(F)F)cccn3n2)cn1)N1CCN(C2CCCCC2)CC1 [Example 153, 1-[3-[2-[[1-[2-(4-cyclohexylpiperazin-1-yl)-2-oxo-ethyl]pyrazol-4-yl]amino]-[1,2,4]triazolo[1,5-a]pyridin-8-yl]-3,8-diazabicyclo[3.2.1]octan-8-yl]-4,4,4-trifluoro-butan-1-one]	9.70	9.52
CN1CCN(C(=O)Cn2cc(Nc3nc4c(N5CC6CCC(C5)N6C(=O)CC(O)C(F)(F)F)cccn4n3)cn2)CC1 (centres unmarked) [Example 154, 4,4,4-trifluoro-3-hydroxy-1-[3-[2-[[1-[2-(4-methylpiperazin-1-yl)-2-oxo-ethyl]pyrazol-4-yl]amino]-[1,2,4]triazolo[1,5-a]pyridin-8-yl]-3,8-diazabicyclo[3.2.1]octan-8-yl]butan-1-one]	9.30	9.05
CN1CCN(C(=O)Cn2cc(Nc3nc4c(N5CC6CCC(C5)N6S(=O)(=O)c5cccc(F)c5)cccn4n3)cn2)CC1 [Example 156, 2-[4-[[8-[8-(3-fluorophenyl)sulfonyl-3,8-diazabicyclo[3.2.1]octan-3-yl]-[1,2,4]triazolo[1,5-a]pyridin-2-yl]amino]pyrazol-1-yl]-1-(4-methylpiperazin-1-yl)ethanone]	8.89	8.43
CN1CCN(C(=O)Cn2cc(Nc3nc4c(N5CC6CCC(C5)N6C(=O)c5ccsc5)cccn4n3)cn2)CC1 [Example 157, 1-(4-methylpiperazin-1-yl)-2-[4-[[8-[8-(thiophene-3-carbonyl)-3,8-diazabicyclo[3.2.1]octan-3-yl]-[1,2,4]triazolo[1,5-a]pyridin-2-yl]amino]pyrazol-1-yl]ethanone]	9.40	8.85
CN1CCN(C(=O)Cn2cc(Nc3nc4c(N5CC6CCC(C5)N6S(=O)(=O)Cc5ccccc5F)cccn4n3)cn2)CC1 [Example 158, 2-[4-[[8-[8-[(2-fluorophenyl)methylsulfonyl]-3,8-diazabicyclo[3.2.1]octan-3-yl]-[1,2,4]triazolo[1,5-a]pyridin-2-yl]amino]pyrazol-1-yl]-1-(4-methylpiperazin-1-yl)ethanone]	9.05	8.55
